From article PMC7377361, “Pressurized DNA state inside herpes capsids—A novel antiviral target” (PLoS Pathogens, 2020)

How the values were obtained:
HSV-1 = assay: In vitro HSV-1 replication (plaque reduction) assay, EC50 and SI50 estimates; format: cell-based; set-up: unit not given beside the values; conditions: HFF cells infected with HSV-1
[1] = In vivo toxicity studies in mice (NIH/NIAID preclinical service)
Procedure: A control group was treated with PBS. […] No signs of distress or significant weight loss were observed during the 4 days of treatment. […]
B. In vivo toxicity studies in mice for bPEI 600 and DAB-Am-4. Experiments were conducted through NIAID/NIH preclinical service agreement No HHSN272201700017I/ […]
Procedures and Endpoints:
1- Baseline weights of all mice
2- IP treatment (twice a day, for 4 days)
3- Daily assessment of weights and condition
4- All animals sacrificed the following morning after the last evening treatment 5- Blood samples collected by IC stick for lab tests (liver, spleen and blood profiles) 6- Internal organs examined for signs of gross tissue toxicity
1. Toxicity evaluation of bPEI 600 Da in mice.
A toxicity screen was performed in uninfected mice treated with 3 doses of bPEI 600 Da, administered for 4 days. In this study, 3 doses of 5, 10 and 25 mg/kg/day were administered twice daily IP for 4 days (n=4/group). A control group was treated with the vehicle (PBS). The mice were examined daily and the weights and general condition were recorded daily. To examine liver, renal and blood function parameters, blood samples were obtained by intracardiac puncture at the end of the study (the following day after last dose) and the mice were sacrificed to examine the internal organs for signs of gross tissue toxicity.
The weights were recorded
In order to confirm the results of the lab results obtained in the toxicity study, a second group of slightly larger mice were treated with the high and the low doses of bPEI 600 Da (25 mg/kg and 5 mg/kg, n=6/group) and the vehicle control (PBS, n=4) for 4 days. Blood samples were collected at the end of the study for liver and renal chemistry profiles. The results are shown in the next […]
REN AL PBS 5 mg/kg 25 mg/kg
LIVER PBS 5 mg/kg 25 mg/kg
Al b:Gl ob R a ti o 1 1 1 […]
obtained from the second group of mice treated with bPEI 600 Da for 4 days.
No signs of distress or significant weight loss were ere observed during the […]
show significant differences with the results obtained in the PBS treated group of control mice.
Statistical analysis: Means were compared by Student’s t test, and mortality was compared by Fisher’s exact test, where applicable.
Ethics regulation of Laboratory animals: Animals were housed in facilities approved by the Association for Assessment and Accreditation of Laboratory Animal Care and Use Committee
2. Toxicity evaluation of DAB-Am-4 in mice.
A toxicity screen in uninfected mice was performed. 2 doses of 5 and 25 mg/kg/day were administered twice daily IP for 4 days (n=6/group). A control group was treated with the vehicle […]
The mice were examined daily and the weights and general condition were recorded. […]

[2] = mice, 5 mg/kg/day twice daily IP, 4 days, Mean, CBC (n=1-2)
[3] = mice, 5 mg/kg/day twice daily IP, 4 days, Mean, LIVER (n=5)
[4] = mice, 5 mg/kg/day twice daily IP, 4 days, Mean, RENAL (n=5)

Structure (SMILES): Nc1nc2c(ncn2COCCO)c(=O)[nH]1 [Acyclovir]
- SI50 (HSV-1): ~ 10^2

Structure (SMILES): NCCCN(CCCN)CCCN(CCCCN(CCCN(CCCN)CCCN)CCCN(CCCN)CCCN)CCCN(CCCN)CCCN [DAB-Am-8]
- signs of acute toxicity (lab tests) ([1]; mice, 5 and 25 mg/kg/day DAB-Am-4, 5 mg/kg/day DAB-Am-8): no conclusive signs of acute toxicity
- signs of distress during the observation period ([1]; mice, low dose 5 mg/kg/day): no significant signs
- %Lymphocyte [1, 2]: 75%
- Hematocrit [1, 2]: 42
- WBC [1, 2]: 6
- AST [1, 3]: 437
- Alb:Glob Ratio [1, 3]: 2
- Albumin [1, 3]: 3
- Amylase [1, 3]: 730
- Bile Acids [1, 3]: 238
- Cholesterol [1, 3]: 61
- Creatine Kinase [1, 3]: 3149
- GGT [1, 3]: < 1
- Globin [1, 3]: 2
- Total Protein [1, 3]: 4
- Triglyceride [1, 3]: 114
- BUN [1, 4]: 22
- Ca:Phos Ratio [1, 4]: 1
- Calcium [1, 4]: 8
- Chloride [1, 4]: 111
- Glucose [1, 4]: 204
- K [1, 4]: 7
- Na [1, 4]: 147
- Na:K Ratio [1, 4]: 22
- Phosphorus [1, 4]: 9
- Uric Acid [1, 4]: 2
- toxicity ([1]; mouse, in vivo, 25 mg/kg/day): displayed toxicity
